In ChEMBL document CHEMBL4219200, “Beta-sitosterol and its derivatives repress lipopolysaccharide/d-galactosamine-induced acute hepatic injury by inhibiting the oxidation and inflammation in mice” (Bioorg Med Chem Lett, 2018) one finds Activity, solubility and inhibition data, which are given here for five compounds.

The source made the active and inactive calls. The calls are words filed in the database; no cut-off is given here.

Series [1] has as its system Mus musculus. Briefly: Hepatoprotective activity against lipopolysaccharide/D-galactosamine-induced acute hepatic injury in mouse assessed as increase in survival rate at 50 mg/kg up to 24 hrs. The class given is functional, organism-based.
The nature of series [2]: Solubility of the compound in water assessed as volume of solvent required to dissolve 1 g of compound. The class given is physicochemical. The conditions noted are these: buffer.
Another series relates to L02. Briefly: Cytotoxicity against human L02 cells up to 10 uM by MTT assay. The class given is cell-based. For orientation: Tetrazolium assays rely on reduction of a dye to a coloured formazan, in cell work by metabolically active cells.
For series [3], the system named is Mus musculus. Description: Hepatoprotective activity against lipopolysaccharide/D-galactosamine-induced acute hepatic injury in mouse assessed as inhibition of LPS/GalN-induced decrease in SOD level in liver at 50 mg/kg. The class given is functional, organism-based.
Series [4] has as its system Mus musculus. Briefly: Hepatoprotective activity against lipopolysaccharide/D-galactosamine-induced acute hepatic injury in mouse assessed as increase in Nrf2 protein level in liver at 50 mg/kg by Western blot analysis. The class given is functional, organism-based.
The subject of series [5] is Mus musculus. Briefly: Hepatoprotective activity against lipopolysaccharide/D-galactosamine-induced acute hepatic injury in mouse assessed as inhibition of LPS/GalN-induced increase in TNFalpha level in liver at 12.5 to 50 mg/kg. The class given is functional, organism-based.
In series [6] the test system is Mus musculus. Description: Hepatoprotective activity against lipopolysaccharide/D-galactosamine-induced acute hepatic injury in mouse assessed as increase in HO1 protein level in liver at 50 mg/kg by Western blot analysis. The class given is functional, organism-based.
In series [7] the test system is Mus musculus. Description: Hepatoprotective activity against lipopolysaccharide/D-galactosamine-induced acute hepatic injury in mouse assessed as inhibition of LPS/GalN-induced increase in IL-6 level in liver at 12.5 to 50 mg/kg. The class given is functional, organism-based.
Series [8] concerns Mus musculus. Description: Hepatoprotective activity against lipopolysaccharide/D-galactosamine-induced acute hepatic injury in mouse assessed as increase in IkB protein level in liver at 50 mg/kg by Western blot analysis. The class given is functional, organism-based. For orientation: A western blot detects proteins with antibodies after separation by electrophoresis.
Series [9] has as its system Mus musculus. Description: Hepatoprotective activity against lipopolysaccharide/D-galactosamine-induced acute hepatic injury in mouse assessed as reduction in serum ALT level at 50 mg/kg. The class given is functional, organism-based.
Series [10] concerns Mus musculus. Briefly: Hepatoprotective activity against lipopolysaccharide/D-galactosamine-induced acute hepatic injury in mouse assessed as decrease in NF-kB protein level in liver at 12.5 to 50 mg/kg by Western blot analysis. The class given is functional, organism-based.
The test system of series [11] is Mus musculus. Briefly: Hepatoprotective activity against lipopolysaccharide/D-galactosamine-induced acute hepatic injury in mouse assessed as inhibition of liver cell necrosis at 50 mg/kg up to 24 hrs by microscopic method. The class given is functional, organism-based.
Series [12] deals with Mus musculus. Briefly: Hepatoprotective activity against lipopolysaccharide/D-galactosamine-induced acute hepatic injury in mouse assessed as increase in Nrf2 mRNA level in liver at 12.5 to 50 mg/kg by RT-PCR analysis. The class given is functional, organism-based.
Series [13] deals with Mus musculus. Briefly: Hepatoprotective activity against lipopolysaccharide/D-galactosamine-induced acute hepatic injury in mouse assessed as restoration of hepatic lobular structure at 50 mg/kg up to 24 hrs by microscopic method. The class given is functional, organism-based.
Series [14] concerns Mus musculus. Description: Hepatoprotective activity against lipopolysaccharide/D-galactosamine-induced acute hepatic injury in mouse assessed as inhibition of LPS/GalN-induced increase in IL-1beta level in serum at 12.5 to 50 mg/kg. The class given is functional, organism-based.
Series [15] has as its system Mus musculus. Description: Hepatoprotective activity against lipopolysaccharide/D-galactosamine-induced acute hepatic injury in mouse assessed as inhibition of NFkB mRNA level in liver at 12.5 to 50 mg/kg by RT-PCR analysis. The class given is functional, organism-based.
Series [16] concerns Mus musculus. Description: Hepatoprotective activity against lipopolysaccharide/D-galactosamine-induced acute hepatic injury in mouse assessed as reduction in serum AST level at 50 mg/kg. The class given is functional, organism-based.
For series [17], the system named is Mus musculus. Description: Hepatoprotective activity against lipopolysaccharide/D-galactosamine-induced acute hepatic injury in mouse assessed as inhibition of Il-1beta mRNA level in liver at 12.5 to 50 mg/kg by RT-PCR analysis. The class given is functional, organism-based.
Series [18] deals with Mus musculus. Briefly: Hepatoprotective activity against lipopolysaccharide/D-galactosamine-induced acute hepatic injury in mouse assessed as inhibition of LPS/GalN-induced decrease in GSH level in liver at 50 mg/kg. The class given is functional, organism-based.
Series [19] has as its system Mus musculus. Briefly: Hepatoprotective activity against lipopolysaccharide/D-galactosamine-induced acute hepatic injury in mouse assessed as inhibition of LPS/GalN-induced increase in TNFalpha level in serum at 12.5 to 50 mg/kg. The class given is functional, organism-based.
For series [20], the system named is Mus musculus. Description: Hepatoprotective activity against lipopolysaccharide/D-galactosamine-induced acute hepatic injury in mouse assessed as inhibition of LPS/GalN-induced increase in IL-6 level in serum at 12.5 to 50 mg/kg. The class given is functional, organism-based.
The test system of series [21] is Mus musculus. Briefly: Hepatoprotective activity against lipopolysaccharide/D-galactosamine-induced acute hepatic injury in mouse assessed as decrease in TLR4 protein level in liver at 12.5 to 50 mg/kg by Western blot analysis. The class given is functional, organism-based.
Series [22] relates to Mus musculus. Description: Hepatoprotective activity against lipopolysaccharide/D-galactosamine-induced acute hepatic injury in mouse assessed as inhibition of LPS/GalN-induced increase in MDA level in liver at 50 mg/kg. The class given is functional, organism-based.
The subject of series [23] is Mus musculus. Briefly: Hepatoprotective activity against lipopolysaccharide/D-galactosamine-induced acute hepatic injury in mouse assessed as inhibition of TNFalpha mRNA level in liver at 12.5 to 50 mg/kg by RT-PCR analysis. The class given is functional, organism-based.
Series [24] concerns Mus musculus. Briefly: Hepatoprotective activity against lipopolysaccharide/D-galactosamine-induced acute hepatic injury in mouse assessed as inhibition of LPS/GalN-induced increase in IL-1beta level in liver at 12.5 to 50 mg/kg. The class given is functional, organism-based.
Series [25] has as its system Mus musculus. Briefly: Hepatoprotective activity against lipopolysaccharide/D-galactosamine-induced acute hepatic injury in mouse assessed as inhibition of LPS/GalN-induced decrease in CAT level in liver at 50 mg/kg. The class given is functional, organism-based.

Take `C/C=C/C=C/C(=O)O[C@H]1CC[C@@]2(C)C(=CC[C@H]3[C@@H]4CC[C@H]([C@H](C)CC[C@@H](CC)C(C)C)[C@@]4(C)CC[C@@H]32)C1`: the result in the series with Mus musculus [1] was Active. Also, in series [2], the solubility was in the range of 1000 to 10000 mL. The Activity entry with L02 was “Non-Toxic”.

With `CC[C@H](CC[C@@H](C)[C@H]1CC[C@H]2[C@@H]3CC=C4C[C@@H](O)CC[C@]4(C)[C@H]3CC[C@]12C)C(C)C` [BETA-SITOSTEROL], the outcome in the series with Mus musculus [1] was Active. Also, in [2], the solubility entry is “<= 10000 ml”.

For the compound `CC[C@H](CC[C@@H](C)[C@H]1CC[C@H]2[C@@H]3CC=C4C[C@@H](OC(=O)c5ccc6ccccc6c5)CC[C@]4(C)[C@H]3CC[C@]12C)C(C)C`, the inhibition entry with Mus musculus [3], in the series with Mus musculus [5], in the series on Mus musculus [7], with Mus musculus [11], with Mus musculus [14] and with Mus musculus [15] was “Active” each time. Besides, the inhibition result in the series with Mus musculus [17], in the series with Mus musculus [18], in the series with Mus musculus [19], in the series with Mus musculus [20], in the series with Mus musculus [22] and with Mus musculus [23] was “Active” in each case. Further, the inhibition entry with Mus musculus [24] and in the series with Mus musculus [25] was “Active” in each case. The result with Mus musculus [1], in the series with Mus musculus [4], in the series on Mus musculus [6], in the series on Mus musculus [8], with Mus musculus [9] and with Mus musculus [10] was Active. Also, the result in the series with Mus musculus [12], in the series with Mus musculus [13], in the series on Mus musculus [16] and in the series on Mus musculus [21] was Active. Besides, the solubility in series [2] was in the range of 1000 to 10000 mL. Moreover, in the series with L02, the Activity result is on record as “Non-Toxic”.

Consider `CC[C@H](CC[C@@H](C)[C@H]1CC[C@H]2[C@@H]3CC=C4C[C@@H](OC(=O)c5ccco5)CC[C@]4(C)[C@H]3CC[C@]12C)C(C)C`, for which the result with Mus musculus [1] was Active. For the same compound, the solubility in series [2] lay in the range of 1000 to 10000 mL. In addition, in the series with L02, the Activity result is given as “Non-Toxic”.

With `CC[C@H](CC[C@@H](C)[C@H]1CC[C@H]2[C@@H]3CC=C4C[C@@H](OC(=O)c5ccccc5O)CC[C@]4(C)[C@H]3CC[C@]12C)C(C)C`, the result with Mus musculus [1] was Active. Further, in [2], the solubility fell in the range of 1000 to 10000 mL. In addition, in the series on L02, the Activity entry is “Non-Toxic”.
